These results are taken from patent US7199286B2, “Plant-derived novel pathogen and SAR-induction chemical induced promoters, and fragments thereof” (Syngenta Participations AG, priority 1999, dated 2007).

What all share (assay type): in vivo, Arabidopsis
Test [1] deals with NI16 RNA. The test is described as follows: Quantitative Northern, NI16 level in wild type and NI16-overexpressing lines after BTH. The conditions noted are these: for NI16 level (relative): 24 hours after induction. The source says: (§1) A NI16 construct is made in binary vector pBAR35S (obtained from Jeff Dangi, UNC-Chapel Hill). First a full-length clone is obtained by cloning the 5′ sequence of NI16 (obtained by 5′ RACE and cloned into AT vector pCR2.1) into the EcoRI site of the original pJG4-5 clone as an EcoRI fragment. Then the entire coding region of NI16 is PCR cloned back into pCR2.1 with the primers 16F and 16 R (Table 1). The resulting plasmid is cut with XbaI and SacI for cloning into pBAR35S. The clone is transformed into Agrobacterium strain GV3101 (Koncz and Schell, 1986). WS—O and nim1-4 plants are transformed using standard procedures and the resulting T1 seed is selected by spraying with a 60 μg/ml solution of BASTA every two days for 6 days after germination. BASTA resistant plants are analyzed for levels of NI16 and PR-1 RNA after 4 weeks.
(§2) 4 WS—O plants expressing NI16 above wild type levels are recovered. All have elevated levels of PR-1 RNA as detected on Northern blots. All 4 plants are taken to the T3 generations. Quantitative Northerns are done on two of the T3 lines, one with a relatively low level of N116 RNA (1-1B) and one with a high level of N116 RNA (2-1B). Northerns are hybridized with NI16 and PR-1 probes. Measurements are taken with a Molecular Dynamics Phosphoimager, which directly measures counts per unit area. The amount of PR-1 RNA correlates directly with the amount of NI16 RNA, i.e., the highest expressers of NI16 have the highest levels of PR-1. (Table 2). […] PR-1 levels are induced at the same rate in the two NI16 lines as the WS—O control, however steady state PR-1 levels are higher, especially at 0 and 10 μm BTH. NI16 may therefore be necessary for the SAR response, and overexpression of NI16 may activate a subset of the response. PR-1 is also elevated in nahG, nim1-1 and nim1-4 plants overexpressing NI16. Out of 34 nim1-1 T1 plants containing the 35S-NI16 construct, 22 have elevated levels of PR-1. Similarly, 18/26 nim1-4 and 20/27 nahG primary transformants have elevated PR-1 levels. In each case, high NI16 expression is correlated with high PR-1 levels. This is significant because nim1 and nahG plants are normally deficient in their ability to induce PR1 in response to pathogens. Furthermore, this provides evidence that overexpression of NI16 can at least partially compensate for the absence of SA and a functional NIM protein in plants.

The test system of test [2] is NI16 gene. As to the kind of experiment: NI16 gene induction in NIM1-overexpressing plants treated with BTH.
Test [3] deals with NI16 transcript. The test is described as follows: NI16 transcript accumulation in nim1-4 plants after BTH treatment. The conditions noted are these: after 2 and 24 hours of BTH treatment.
Test [4] relates to PR-1 RNA. As to the kind of experiment: Quantitative Northern, PR-1 level in wild type and NI16-overexpressing lines after BTH. The conditions noted are these: 24 hours after induction.
From the text: as §1, §2

For test [5], the system named is NI16 RNA. The test is described as follows: Induction of NI16 mRNA by SA and BTH spray, RNA blot hybridization. The conditions noted are these: WS-O plants sprayed with 5 mM SA or 300 μm BTH. As for the experimental part:
RNA is prepared from 4 week old Wassilewskija (WS—O) plants, that are either sprayed with water, a 5 mM solution of sodium salicylate (SA), or a 300 μm solution of benzo-(1,2,3)-thiadiazole-7-carbothioic acid S-methyl ester (BTH). […] RNA extractions and RNA blot hybridizations are performed as described previously by Ausubel et al. (1987). NI16 RNA is induced 5–10 fold within 15 minutes of SA or BTH induction and reaches a peak of approximately 50 fold induction within 2 hours of SA treatment and 25 fold induction with BTH treatment.

[6] abbreviates: NI16-overexpressing line 1-1B, 10 μm BTH.
The mark [7] stands for this setting: NI16-overexpressing line 1-1B, 100 μm BTH.
The mark [8] stands for this setting: NI16-overexpressing line 2-1B, 10 μm BTH.
[9] abbreviates: NI16-overexpressing line 2-1B, 100 μm BTH.

Regarding `CSC(=O)c1cccc2nnsc12` [BTH, benzo(1,2,3)thiadiazole-7-carbothioic acid S-methyl ester], the “NI16 level (relative)” value in test [1] (setting [6]) worked out at 1400; in test [1] (setting [7]), 1480; in test [1] (setting [8]) it was 14000; in test [1] (setting [9]), 12000; in test [1] (genotype WS, 10 μm BTH), 10; in test [1] (genotype WS, 100 μm BTH), 90. Also, the “effect on amount of NI16 RNA” value in test [1] (NI16 transgenic lines, BTH rates lower than normally used for protection to Peronospora parasitica) is recorded as “do not significantly increase the amount of NI16 RNA”. The NI16 gene induction result in test [2] is on record as “induced”. Further, the NI16 transcript accumulation result in test [3] is recorded as “unable to accumulate NI16 transcript”. Also, the “PR-1 level (relative)” value is 30 in test [4] (setting [6]); 120 in test [4] (setting [7]); 70 in test [4] (setting [8]); 140 in test [4] (setting [9]); 30 in test [4] (genotype WS, 10 μm BTH); 90 in test [4] (genotype WS, 100 μm BTH). Also, in test [5], the “time NI16 transcript remains highly induced after treatment” value is recorded as “at least 48 hours”. Besides, the “NI16 RNA peak induction” value in test [5] (peak, within 2 hours of SA treatment) is roughly 25 fold.
